Measurements from US8962596B2 (Array BioPharma Inc., priority 2010, dated 2015).

What was measured:
Format in all cases: biochemical
Human Tyk2 kinase domain = target: T1, Human Tyk2 kinase domain (Homo sapiens, UniProt P29597); assay: Tyk2 Inhibition Assay (Omnia kinase fluorescence peptide substrate assay); conditions: averaged IC50 ranges; assay of Example A; 10 μM (Km app) or 1 mM ATP, 2 nM Tyk2
T1 construct: comprising amino acids 886 to 1187 with 10 additional histidine residues; 10xHis (histidine tag) (C, cleaved yes); made in house
T1 sequence (P29597 886-1187): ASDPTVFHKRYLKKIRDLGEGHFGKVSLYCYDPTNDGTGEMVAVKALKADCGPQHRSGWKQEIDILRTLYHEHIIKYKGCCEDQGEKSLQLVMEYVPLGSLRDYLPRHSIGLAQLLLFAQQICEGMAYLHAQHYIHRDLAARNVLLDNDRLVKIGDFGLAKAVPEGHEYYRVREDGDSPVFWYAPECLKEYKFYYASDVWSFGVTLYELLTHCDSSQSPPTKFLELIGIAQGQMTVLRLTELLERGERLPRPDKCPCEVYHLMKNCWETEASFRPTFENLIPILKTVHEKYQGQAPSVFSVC
From the text: (§1) The assays described in Examples A, B, C and D for the determination of Tyk2, JAK1, JAK2 and JAK3 kinase activity, respectively, utilized the Omnia® Kinase fluorescence peptide substrate-based technology (Invitrogen). The specific components of the assay mixture are described in Examples A, B, C and D. In these assays, Mg^2+ is chelated upon phosphorylation of the Omnia peptide by the kinase to form a bridge between the chelation-enhanced fluorophore Sox and the phosphate, resulting in an increase in fluorescence emission at 485 nm when excited at […]. The reactions were therefore read at excitation 360 nm and emission was measured at 485 nm every 50 seconds for 45 minutes using a PerkinElmer EnVision Multilabel Plate Reader.
(§2) The final buffer conditions for Tyk2, JAK1, JAK2, and JAK3 assays were as follows: 25 mM HEPES, pH 7.4, 10 mM MgCl2, 0.01% Triton X-100 and 1 mM DTT.
(§3) Compounds were prepared at 50× the final concentration in DMSO by conducting 3-fold serial dilutions from a 500-μM intermediate dilution to give a 10-point dosing curve having a high dose of 10 μM. Two-μL aliquots of these were transferred to a fresh plate for a ten-fold intermediate dilution with assay buffer. Five-μL aliquots of the diluted compounds were then transferred to 20-μL of assay mixtures described in Examples A, B, C and D for a final concentration of DMSO of 2%. A standard or reference compound was typically included on each assay plate to validate that plate. For each plate, percent of control (POC) values were calculated for each well according to the following equation:
(§4) where Xmax=Average Uninhibited Controls • Xmin=Average Background IC50's were estimated from the POC's using a standard 4-parameter logistic model:
(§5) where • A=Minimum Y (Bottom Asymptote) • B=Maximum Y (Top Asymptote) • C=EC50 • D=Slope Factor • X=Compound Concentration (nM) • Y=POC
(§6) The IC50 is defined as the concentration of inhibitor at which the POC equals 50 for the fitted curve.
Compounds of Formula I were screened for their ability to inhibit Tyk2 using the general enzyme inhibition assay method, in which the assay mixture contained 10 μM (Km app) or 1 mM ATP, 8 μM Omnia® Y12 peptide (Catalog #IVGN KPZ3121C; Invitrogen Corporation, Carlsbad, Calif.) and 2 nM Tyk2 in a total volume of 20 μL. Human Tyk2 kinase domain, comprising amino acids 886 to 1187 with 10 additional histidine residues (histidine tag) on the carboxy terminus, was expressed and purified from bacculovirus in-house at Array BioPharma Inc. (Boulder, Colo.). The histidine tag was cleaved after purification using standard conditions.

JAK1 = target: T2, JAK1 (Homo sapiens, UniProt P23458); assay: JAK1 Inhibition Assay (Omnia kinase fluorescence peptide substrate assay); conditions: averaged IC50 ranges; assay of Example B; 40 μM (Km app) or 1 mM ATP, 15 nM JAK1
T2 construct: purchased Invitrogen Corporation, Carlsbad, Calif; PV4775
T2 sequence (P23458 whole entry): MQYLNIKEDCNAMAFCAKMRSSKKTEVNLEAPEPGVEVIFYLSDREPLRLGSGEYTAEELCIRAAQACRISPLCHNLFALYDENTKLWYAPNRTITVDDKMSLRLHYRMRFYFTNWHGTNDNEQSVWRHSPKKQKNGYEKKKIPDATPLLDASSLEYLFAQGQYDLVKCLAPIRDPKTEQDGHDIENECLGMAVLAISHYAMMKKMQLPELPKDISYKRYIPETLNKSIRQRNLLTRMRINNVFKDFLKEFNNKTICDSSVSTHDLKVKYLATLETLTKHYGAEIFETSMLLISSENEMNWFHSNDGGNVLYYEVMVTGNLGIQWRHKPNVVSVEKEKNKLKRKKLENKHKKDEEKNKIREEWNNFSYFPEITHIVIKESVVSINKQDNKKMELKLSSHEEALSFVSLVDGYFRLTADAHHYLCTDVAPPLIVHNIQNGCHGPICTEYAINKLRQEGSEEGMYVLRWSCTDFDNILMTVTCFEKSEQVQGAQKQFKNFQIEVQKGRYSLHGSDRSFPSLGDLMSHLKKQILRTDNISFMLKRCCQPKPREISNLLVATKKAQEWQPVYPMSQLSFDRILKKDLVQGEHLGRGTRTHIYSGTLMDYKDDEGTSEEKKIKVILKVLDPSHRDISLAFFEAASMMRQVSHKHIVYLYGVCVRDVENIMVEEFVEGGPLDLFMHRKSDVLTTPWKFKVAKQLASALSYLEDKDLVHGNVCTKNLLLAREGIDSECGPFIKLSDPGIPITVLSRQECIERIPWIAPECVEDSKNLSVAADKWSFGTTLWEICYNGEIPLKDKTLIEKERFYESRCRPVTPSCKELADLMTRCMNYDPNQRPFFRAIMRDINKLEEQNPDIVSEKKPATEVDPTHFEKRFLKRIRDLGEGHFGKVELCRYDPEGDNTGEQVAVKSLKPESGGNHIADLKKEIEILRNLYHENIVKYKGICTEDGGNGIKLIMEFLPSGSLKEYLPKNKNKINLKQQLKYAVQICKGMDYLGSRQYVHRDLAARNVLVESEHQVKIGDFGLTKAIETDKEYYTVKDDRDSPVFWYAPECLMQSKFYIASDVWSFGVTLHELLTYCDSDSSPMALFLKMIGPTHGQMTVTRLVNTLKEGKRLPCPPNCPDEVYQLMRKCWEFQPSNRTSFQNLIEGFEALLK
From the text: as §1, §2, §3, §4, §5, §6
Compounds of Formula I were screened for their ability to inhibit JAK1 using the general enzyme inhibition assay method, in which the assay mixture contained 40 μM (Km app) or 1 mM ATP, 8 μM Omnia® Y12 peptide (Catalog #IVGN KPZ3121C; Invitrogen Corporation, Carlsbad, Calif.) and 15 nM JAK1 in a total volume of 20 μL. JAK1 was purchased from Invitrogen Corporation, Carlsbad, Calif. (catalog #IVGN PV4775).

JAK2 = target: T3, JAK2 (Homo sapiens, UniProt O60674); assay: JAK2 Inhibition Assay (Omnia kinase fluorescence peptide substrate assay); conditions: averaged IC50 ranges; assay of Example C; 25 μM (Km app) or 1 mM ATP, 5 nM JAK2
T3 construct: purchased Invitrogen Corporation, Carlsbad, Calif; PV4288
T3 sequence (O60674 whole entry): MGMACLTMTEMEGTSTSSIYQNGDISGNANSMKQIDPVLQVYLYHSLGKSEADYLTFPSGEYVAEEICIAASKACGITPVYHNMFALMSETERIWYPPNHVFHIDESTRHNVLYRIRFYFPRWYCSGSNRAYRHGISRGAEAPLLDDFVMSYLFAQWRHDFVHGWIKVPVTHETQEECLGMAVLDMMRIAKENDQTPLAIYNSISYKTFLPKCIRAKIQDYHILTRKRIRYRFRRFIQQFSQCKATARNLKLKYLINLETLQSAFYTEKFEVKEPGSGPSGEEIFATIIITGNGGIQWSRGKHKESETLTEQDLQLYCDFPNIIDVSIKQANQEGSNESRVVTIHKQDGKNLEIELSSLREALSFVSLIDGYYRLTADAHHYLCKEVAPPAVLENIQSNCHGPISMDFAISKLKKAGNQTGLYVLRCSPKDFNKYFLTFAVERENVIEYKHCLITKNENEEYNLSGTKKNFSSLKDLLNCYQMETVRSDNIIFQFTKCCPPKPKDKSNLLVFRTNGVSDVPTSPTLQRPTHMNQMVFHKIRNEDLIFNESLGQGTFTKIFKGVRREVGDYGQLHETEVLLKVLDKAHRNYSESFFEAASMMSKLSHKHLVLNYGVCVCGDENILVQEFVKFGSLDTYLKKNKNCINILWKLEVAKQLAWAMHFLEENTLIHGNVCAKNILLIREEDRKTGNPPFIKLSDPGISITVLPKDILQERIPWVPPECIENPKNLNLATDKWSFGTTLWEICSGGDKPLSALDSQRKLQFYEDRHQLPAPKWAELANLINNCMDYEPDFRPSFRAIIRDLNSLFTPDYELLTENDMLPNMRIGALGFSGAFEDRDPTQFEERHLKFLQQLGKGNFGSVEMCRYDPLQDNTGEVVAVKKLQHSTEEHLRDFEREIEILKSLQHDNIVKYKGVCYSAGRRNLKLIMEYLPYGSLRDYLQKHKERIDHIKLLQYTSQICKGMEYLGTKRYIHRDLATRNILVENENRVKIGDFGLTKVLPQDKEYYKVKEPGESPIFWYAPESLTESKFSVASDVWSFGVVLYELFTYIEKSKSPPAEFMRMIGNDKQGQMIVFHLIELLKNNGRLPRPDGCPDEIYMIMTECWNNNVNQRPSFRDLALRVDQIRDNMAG
From the text: as §1, §2, §3, §4, §5, §6
(§7) Compounds of Formula I were screened for their ability to inhibit JAK2 using the general enzyme inhibition assay method, in which the assay mixture contained 25 μM (Km app) or 1 mM ATP, 10 μM Omnia® Y7 peptide (Catalog #IVGN KNZ3071C, Invitrogen Corporation, Carlsbad, Calif.) and 5 nM JAK2 in a total volume of 20 μL. JAK2 was purchased from Invitrogen Corporation, Carlsbad, Calif. (catalog #IVGN PV4288).

JAK3 = target: T4, JAK3 (Homo sapiens, UniProt P52333); assay: JAK3 Inhibition Assay (Omnia kinase fluorescence peptide substrate assay); conditions: averaged IC50 ranges; assay of Example D; 10 μM (Km app) or 1 mM ATP, 2.5 nM JAK3
T4 construct: purchased Invitrogen Corporation, Carlsbad, Calif; PV4080
T4 sequence (P52333 1-1124): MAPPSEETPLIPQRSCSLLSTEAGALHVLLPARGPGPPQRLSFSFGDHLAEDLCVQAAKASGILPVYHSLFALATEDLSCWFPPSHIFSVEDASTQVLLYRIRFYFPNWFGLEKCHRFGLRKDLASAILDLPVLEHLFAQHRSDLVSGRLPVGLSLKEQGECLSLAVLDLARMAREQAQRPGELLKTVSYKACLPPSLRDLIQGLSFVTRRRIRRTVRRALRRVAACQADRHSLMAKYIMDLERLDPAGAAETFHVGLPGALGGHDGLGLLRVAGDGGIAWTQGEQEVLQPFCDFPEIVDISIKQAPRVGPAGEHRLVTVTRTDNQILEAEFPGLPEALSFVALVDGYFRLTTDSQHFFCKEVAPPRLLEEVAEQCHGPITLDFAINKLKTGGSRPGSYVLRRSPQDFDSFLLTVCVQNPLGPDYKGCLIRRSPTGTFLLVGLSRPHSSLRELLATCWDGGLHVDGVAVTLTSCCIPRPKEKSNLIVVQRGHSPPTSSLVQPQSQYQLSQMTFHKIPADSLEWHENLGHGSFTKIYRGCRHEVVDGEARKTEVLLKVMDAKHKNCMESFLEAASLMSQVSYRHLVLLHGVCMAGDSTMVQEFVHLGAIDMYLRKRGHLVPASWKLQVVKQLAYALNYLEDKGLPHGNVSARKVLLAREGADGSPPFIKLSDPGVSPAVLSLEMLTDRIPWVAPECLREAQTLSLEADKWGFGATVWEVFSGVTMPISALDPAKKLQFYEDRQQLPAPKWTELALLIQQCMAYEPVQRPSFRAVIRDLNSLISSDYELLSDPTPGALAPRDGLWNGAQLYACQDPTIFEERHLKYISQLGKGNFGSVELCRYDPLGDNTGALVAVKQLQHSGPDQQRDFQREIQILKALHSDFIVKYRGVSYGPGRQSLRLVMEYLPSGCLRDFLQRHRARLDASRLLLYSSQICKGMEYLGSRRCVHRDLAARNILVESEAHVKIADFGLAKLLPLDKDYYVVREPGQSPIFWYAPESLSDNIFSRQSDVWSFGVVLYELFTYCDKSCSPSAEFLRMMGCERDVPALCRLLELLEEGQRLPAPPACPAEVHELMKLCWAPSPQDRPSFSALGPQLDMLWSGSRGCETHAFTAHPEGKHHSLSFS
From the text: as §1, §2, §3, §4, §5, §6
as §7, with “JAK3” for “JAK2”, “10” for “25”, “2.5” for “5”, “PV4080).” for “PV4288).”

| IC50 (Human Tyk2 kinase domain) [nM] | IC50 (JAK1) [nM] | IC50 (JAK2) [nM] | IC50 (JAK3) [nM] | SMILES |
| --- | --- | --- | --- | --- |
| 10 to 100 | 100 to 1000 | 10 to 100 | > 1000 | Cn1cc(-c2cc3nccn3c(-c3cnn(C(CC#N)c4ccncc4)c3)n2)cn1 (stereo not drawn) [Example 8, 3-(4-(7-(1-methyl-1H-pyrazol-4-yl)imidazo[1,2-c]pyrimidin-5-yl)-1H-pyrazol-1-yl)-3-(pyridin-4-yl)propanenitrile] |
| 10 to 100 | 100 to 1000 | 10 to 100 | > 1000 | COc1cncc(C(CC#N)n2cc(-c3nc(-c4cnn(C)c4)cc4nccn34)cn2)c1 (stereo not drawn) [Example 9, 3-(5-methoxypyridin-3-yl)-3-(4-(7-(1-methyl-1H-pyrazol-4-yl)imidazo[1,2-c]pyrimidin-5-yl)-1H-pyrazol-1-yl)propanenitrile] |
| < 10 | 10 to 100 | 10 to 100 | 100 to 1000 | Cn1cc(-c2cc3nccn3c(-c3cnn(C(CC#N)c4cncc(Br)c4)c3)n2)cn1 (stereo not drawn) [Example 10, 3-(5-bromopyridin-3-yl)-3-(4-(7-(1-methyl-1H-pyrazol-4-yl)imidazo[1,2-c]pyrimidin-5-yl)-1H-pyrazol-1-yl)propanenitrile] |
| < 10 | 10 to 100 | 10 to 100 | 100 to 1000 | Cn1cc(-c2cc3nccn3c(-c3cnn(C(CC#N)c4ccccc4)c3)n2)cn1 (stereo not drawn) [Example 11, 3-(4-(7-(1-methyl-1H-pyrazol-4-yl)imidazo[1,2-c]pyrimidin-5-yl)-1H-pyrazol-1-yl)-3-phenylpropanenitrile] |
| 10 to 100 | 10 to 100 | 10 to 100 | 100 to 1000 | Cn1cc(-c2cc3nccn3c(-c3cnn(C(CC#N)c4ccccc4Cl)c3)n2)cn1 (stereo not drawn) [Example 12, 3-(2-chlorophenyl)-3-(4-(7-(1-methyl-1H-pyrazol-4-yl)imidazo[1,2-c]pyrimidin-5-yl)-1H-pyrazol-1-yl)propanenitrile] |
| < 10 | 10 to 100 | < 10 | 100 to 1000 | Cn1cc(-c2cc3nccn3c(-c3cnn(C(CC#N)c4cccc(Cl)c4)c3)n2)cn1 (stereo not drawn) [Example 13, 3-(3-chlorophenyl)-3-(4-(7-(1-methyl-1H-pyrazol-4-yl)imidazo[1,2-c]pyrimidin-5-yl)-1H-pyrazol-1-yl)propanenitrile] |
| 10 to 100 | 10 to 100 | 10 to 100 | 100 to 1000 | Cn1cc(-c2cc3nccn3c(-c3cnn(C(CC#N)c4ccc(Cl)cc4)c3)n2)cn1 (stereo not drawn) [Example 14, 3-(4-chlorophenyl)-3-(4-(7-(1-methyl-1H-pyrazol-4-yl)imidazo[1,2-c]pyrimidin-5-yl)-1H-pyrazol-1-yl)propanenitrile] |
| < 10 | 10 to 100 | 10 to 100 | 100 to 1000 | Cn1cc(-c2cc3nccn3c(-c3cnn(C(CC#N)c4cccc(C(F)(F)F)c4)c3)n2)cn1 (stereo not drawn) [Example 15, 3-(4-(7-(1-methyl-1H-pyrazol-4-yl)imidazo[1,2-c]pyrimidin-5-yl)-1H-pyrazol-1-yl)-3-(3-(trifiuoromethyl)phenyl)propanenitrile] |
| 100 to 1000 | > 1000 | 100 to 1000 | > 1000 | Cn1cc(-c2cc3nccn3c(-c3cnn(C(C)(CC#N)c4ccccc4)c3)n2)cn1 (stereo not drawn) [Example 16, 3-(4-(7-(1-methyl-1H-pyrazol-4-yl)imidazo[1,2-c]pyrimidin-5-yl)-1H-pyrazol-1-yl)-3-phenylbutanenitrile] |
| < 10 | 10 to 100 | 10 to 100 | > 1000 | Cn1cc(-c2cc3nccn3c(-c3cnn(C(CC#N)C4CCCC4)c3)n2)cn1 (stereo not drawn) [Example 17, 3-cyclopentyl-3-(4-(7-(1-methyl-1H-pyrazol-4-yl)imidazo[1,2-c]pyrimidin-5-yl)-1H-pyrazol-1-yl)propanenitrile] |
| 10 to 100 | 100 to 1000 | 100 to 1000 | > 1000 | Cn1cc(-c2cc3nccn3c(-c3cnn(C(CC#N)C(C)(C)C)c3)n2)cn1 (stereo not drawn) [Example 18, 4,4-dimethyl-3-(4-(7-(1-methyl-1H-pyrazol-4-yl)imidazo[1,2-c]pyrimidin-5-yl)-1H-pyrazol-1-yl)pentanenitrile] |
| 10 to 100 | 100 to 1000 | 100 to 1000 | > 1000 | Cn1cc(-c2cc3nccn3c(-c3cnn(CCC#N)c3)n2)cn1 [Example 19, 3-(4-(7-(1-methyl-1H-pyrazol-4-yl)imidazo[1,2-c]pyrimidin-5-yl)-1H-pyrazol-1-yl)propanenitrile] |
